Laboratory results published in publication PMC9839384 (Slas Discovery, 2023).

How the values were obtained:
3CLpro = 3CLpro (Severe acute respiratory syndrome coronavirus 2, UniProt P0DTD1); test: 3CLpro biochemical inhibition assay; parameters: species or system SARS-CoV-2
SARS-CoV-2 3CLpro = SARS-CoV-2 3CLpro (Severe acute respiratory syndrome coronavirus 2, UniProt P0DTD1); type: cell-based
[1] = tested on: SARS-CoV-2 3CLpro-HA, RLuc, FLuc in HEK293T cells; type: cell-based; settings: actin as control
293T cells = settings: initial screening

SMILES	potency in the enzymatic assay, in words (3CLpro)	Emax (3CLpro; Supplementary Fig. 2, panel D)	inhibition against viral proteases, in words (SARS-CoV-2 3CLpro)	protein expression by western blot [1]	cytotoxicity, in words (293T cells)
O=C(/C=C/c1ccc(Cl)c(Cl)c1)Nc1ccccc1C(=O)O [SR-32229]	low-µM affinity	~100 % of tranilast			
CC(C)C[C@H](NC(=O)[C@H](CCc1ccccc1)NC(=O)CN1CCOCC1)C(=O)N[C@@H](Cc1ccccc1)C(=O)N[C@@H](CC(C)C)C(=O)[C@@]1(C)CO1 [Carfilzomib]			inhibited all the proteases tested	decrease in all exogenously expressed constructs	
COc1ccc(/C=C/C(=O)Nc2ccccc2C(=O)O)cc1OC [Tranilast, (E)-2-(3-(3,4-dimethoxyphenyl)acrylamido)benzoic acid]			SARS 3CLpro specific inhibition		nontoxic
CCN1CCN(Cc2ccc(NC(=O)Nc3ccc(Oc4cc(NC)ncn4)cc3)cc2C(F)(F)F)CC1 [AST-487]			some selective SARS 3CLpro inhibition but only at the highest concentration tested		
